Patent US5723114A, “Penetration enhancing compositions and methods of their use” (Cellegy Pharmaceuticals Inc., priority 1996, dated 1998)
Where a name gives a salt, the structure may show the parent alone.

Columns and labels:
[1] = system: skin barrier (flanks of hairless mice); test: TEWL topical studies: barrier recovery after acetone or tape stripping with topical proton-pump inhibitors; assay type: in vivo; details: DCCD-treated skin immersed in an acidic buffer
Experimental: Proton-pump inhibitors: N,N'-dicyclohexylcarbodiimide (DCCD); 1-10 mM); N-ethyl maleimide (NEM; 1 mM); 7-chloro-4-nitrobenz-2-oxa-1,3-diazole (NBD Cl; 1 mM) and bafilomycin A1 (10 μM) were prepared in vehicle (i.e., 70% propylene glycol, 30% ethanol). Flanks of hairless mice were pre-treated for 30 minutes to 1 hour with drug or vehicle alone before breaking the barrier with acetone. TEWL readings were taken at various time points as described above, followed by additional treatments with drug or vehicle. The DCCD-override study included immersion of flanks in HEPES buffer at pH 5.5 or 7.4 after the pre-treatment with either drug or vehicle and after breaking the barrier with either acetone or by tape stripping.
Test results are shown in FIG. 7 (NEM, NBD-chloride, BAF).

[2] = system: skin barrier (stratum corneum, treated flank of hairless mouse); test: TEWL (water permeability) after oleic acid treatment and application of drug delivery compound; assay type: in vivo; details: for TEWL (T = 4 hours): vehicle 266±22; for water permeability: words
Experimental: (§1) A female hairless mouse, aged 8 weeks, was treated with oleic acid. After oleic acid treatment, epicholesterol, which substitutes for cholesterol, or transvaccenic acid or stearyl amine, both of which substitute for free fatty acid, was applied to the animal.
TEWL (trans-epidermal water loss) was measured before and after treatment at convenient time intervals when the animal was alert. An Evaperimeter (ServoMed) was used.
(§2) First, TEWL of the left (LHS) and right (RHS) dorsal sides was measured. Then, the animal was anesthetized by 0.25 ml chloral hydrate (CH) IP injection. At t=0, an aliquot of 30 μl oleic acid solution (5% in propylene glycol/ethanol 7:3 (v/v)) was applied directly to both sides of the animal (~1.5×3 cm) using a Hamilton syringe. Two hours after oleic acid treatment, the TEWL rates of both sides were measured, and the RHS was treated with 30 μl of epicholesterol alone and with transvaccenic acid or stearylamine (1.5% in propylene glycol/ethanol 7:3 (v/v)). TEWL was measured thereafter every 2 or 3 hours.
(§3) The mice were kept under anesthesia until the harvest of tissue samples and then sacrificed. At time zero, the tested drug delivery compound listed in Tables 2, 3 and 4 below was applied to the whole treated flank of each mouse. After four hours TEWL was measured again and two drug formulations,one containing lidocaine in a vehicle of a mixture of propylene glycol and ethanol and the other containing Leuteinizing Hormone Releasing Hormone (LHRH) in a vehicle of 60% ethanol, 20% propylene glycol and 20% water. Residual formulation was removed from the skin surface with cotton balls three times and the cotton balls were put into vial #1. Five tape-strippings were conducted at the treated skin sites, and each tape was put into an individual vial numbered 2-6. At the same time, blood was drawn and stored under refrigeration. Urine was collected from the mice during the two hour drug application period and placed into vial #8.

[3] = Percutaneous lidocaine delivery (scintillation counting of plasma and body); parameters: species or system hairless mouse; details: mouse, in vivo
Experimental: as §1, §2, §3
After an additional two hours, the treated skin was cut off, the subcutaneous fat was removed, and the whole skin was placed into vial #7 to which 1 ml of tissue solubilizer was added, and the mixture was allowed to digest overnight at 55° C. The corpse was digested in 100 ml of saponification mix at 55° C. overnight.
For analysis, 10 ml of Scintisafe (30% ) Scintillation media (Fisher Scientific, Fairlawn, N.J.) was added to vials 1-6, and 8. The blood samples were centrifuged, and an aliquot of 100-200 μl was placed into vial #9 and 10 ml of Scintisafe (30%) was added. Similar aliquots of the corpse digest were placed into vials #10 and #11. To vials #9, 10, and 11, 100 μl of 30% hydrogen peroxide was added to decolorize the contents for about two hours. Then […] of Scintisafe (30%) and 150 μl of acetic acid were added and the mixture was let stand overnight. All vials were subjected to scintillation counting as described above. The parameters for the vehicle are as follows: TEWL 266±22 (T=4 hours); plasma concentration 0.31±0.03%; total body concentration 13.13±0.83(% dose/ml plasma); N=14.

[4] = Table 2/Table 3, no hourly application, TRIS 50 mM, HEPES 20 mM

With `C(=NC1CCCCC1)=NC1CCCCC1` [DCCD, N,N'-dicyclohexylcarbodiimide] the “barrier recovery, override study” value [1] was “normalized (corrected) the rate of barrier recovery”.

For `O=S(=O)(O)CCN1CCN(CCO)CC1` [HEPES, (N-[2-Hydroxyethyl]piperazine-N'-[2-ethanesulfonic acid])], the “TEWL (T = 4 hours)” value ([2]; Table 2/Table 3, hourly application, HEPES 20 mM, listed as HEPES (pH 5.5)) was 560 ± 125, the “TEWL (T = 4 hours)” value ([2]; Table 2/Table 3, hourly application, HEPES 20 mM, listed as HEPES (pH 7.4)) was 460 ± 24 and the “TEWL (T = 4 hours)” value [2, 4] was 360 ± 18. For the same compound, the water permeability ([2]; alone, single application, pH 5.4) was “approached statistical significance (p=0.05-0.10)”, the water permeability ([2]; hourly to maintain pH 5.5) was “significant increases” and the water permeability ([2]; hourly to maintain pH 7.4) was “increased water permeability was significant”. The lidocaine delivery ([3]; pH 5.4) was “approached statistical significance (p=0.05-0.10)”, the lidocaine delivery ([3]; pH 5.5) was “significant increases” and the lidocaine delivery ([3]; pH 7.4) was “only increased water permeability was significant”.

In the case of `NC(CO)(CO)CO` [TRIS, Tris(hydroxymethyl) aminomethyl maleate], the “TEWL (T = 4 hours)” value [2, 4] is reported as 583 ± 109, the water permeability ([2]; alone, pH 5.5) is reported as “significantly increased” and the lidocaine delivery ([3]; pH 5.5) is reported as “very significantly (p≤0.001) increased”.

For `CC(C)CCC[C@@H](C)[C@H]1CC[C@H]2[C@@H]3CC=C4C[C@H](O)CC[C@]4(C)[C@H]3CC[C@]12C` [epicholesterol], the “TEWL (T = 4 hours)” value ([2]; Table 4, synthetic lipid analogs in propylene glycol/ethanol) was 397 ± 55, the “Plasma Conc. (lidocaine)” value [3] was 0.24 ± 0.05 % dose/ml plasma and the “Total Body Conc. (lidocaine)” value [3] was 11.40 ± 1.98%. For the same compound, the lidocaine delivery [3] was “significantly increased”.
